Values of other authors as cited in patent publication US7026316B2, “Dipeptidyl peptidase inhibitors for the treatment or prevention of diabetes” (Merck & Co., Inc., priority 2001, dated 2006).

Legend:
rats = conditions: survival doubled from day 7 to day 14
mouse = conditions: cyclophosphamide-induced neutropenia
DP-IV = DP-IV (Homo sapiens, UniProt P27487)
Sequence of DP-IV (P27487 whole entry): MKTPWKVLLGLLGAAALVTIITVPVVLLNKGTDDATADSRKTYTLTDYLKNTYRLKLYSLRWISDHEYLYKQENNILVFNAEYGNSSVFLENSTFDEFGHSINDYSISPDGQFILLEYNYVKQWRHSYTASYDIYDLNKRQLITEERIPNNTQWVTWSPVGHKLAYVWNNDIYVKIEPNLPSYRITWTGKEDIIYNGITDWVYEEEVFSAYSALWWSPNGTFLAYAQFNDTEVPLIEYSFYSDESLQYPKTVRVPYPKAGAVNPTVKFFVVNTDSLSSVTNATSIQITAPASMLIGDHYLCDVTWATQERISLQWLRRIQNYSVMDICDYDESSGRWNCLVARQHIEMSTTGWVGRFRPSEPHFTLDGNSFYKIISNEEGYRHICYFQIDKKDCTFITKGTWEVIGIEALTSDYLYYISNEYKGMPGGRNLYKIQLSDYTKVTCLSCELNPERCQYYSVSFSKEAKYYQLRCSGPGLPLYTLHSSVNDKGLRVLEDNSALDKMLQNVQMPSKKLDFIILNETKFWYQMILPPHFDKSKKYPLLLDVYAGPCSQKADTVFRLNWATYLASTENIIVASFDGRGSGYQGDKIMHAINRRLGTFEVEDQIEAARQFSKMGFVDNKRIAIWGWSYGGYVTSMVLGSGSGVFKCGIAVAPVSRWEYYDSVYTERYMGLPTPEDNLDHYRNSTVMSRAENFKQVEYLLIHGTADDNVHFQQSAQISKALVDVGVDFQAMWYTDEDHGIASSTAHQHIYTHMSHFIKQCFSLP

CC(C)N1CCC(c2ccccc2)(c2ccccc2)CC1 [Prodipine, Pro-Pro-diphenyl-phosphonate]
cardiac allograft survival (rats): 14 day

CC(C)[C@H](N)C(=O)N1CCC[C@H]1B(O)O [Val-Boro-Pro]
hematopoiesis (mouse): stimulated hematopoiesis

CC[C@H](C)[C@H](N)C(=O)N1CCC[C@H]1C(=O)N[C@H](C(=O)O)[C@@H](C)CC [diprotin A]
degradation of GRH in plasma to GRH[3-44] (DP-IV): prevented
